Measured values from patent US11231421B2, “Methods of treating multifocal cancer” (NYMOX CORPORATION, priority 2019, dated 2022).
Where no end group is shown, it is not given here.

How the values were obtained:
[1] = system: low grade prostate cancer (Gleason grade 6); assay: Clinical study, Example 2: new multifocal with increase Gleason primary pattern in entire prostate; assay type: in vivo, human; conditions: for % Imp.: new multifocal with increase Gleason primary pattern, entire prostate: vs control active surveillance
Experimental: (§1) In a series of clinical studies a total of 146 men with low grade prostate cancer (Gleason grade 6) were treated in the following manner. Patients were randomized and treated with a transrectal intraprostatic single injection of a composition comprising 2.5 mg FT (n=49), or a composition comprising 15 mg FT (n=48), or were subject to control active surveillance (n=49). After the first follow-up biopsy at 45 days post-randomization, 18 patients in the control active surveillance group crossed over to a single administration of a composition in which 10 patients received 2.5 mg FT, and 8 patients received 15 mg FT. Patients were followed for 5 years including biopsies at baseline, 45 days, 18, 36, and 48 months, and urological evaluations with PSA every 6 months. Patients with Gleason grade increase or who elected surgical or radiotherapeutic intervention exited the study and were still included in the data analysis. Percentage of normal biopsies in the baseline focus quadrant and median tumor grade and volume were assessed; progression was measured by clinical and pathological outcomes including Gleason grade, and Gleason grade primary pattern, in the entire prostate sampled as well as for the treated prostate lobe. Interventions associated with Gleason grade increase as well as total incidence for any conventional surgical intervention (e.g., surgery, radiotherapy, and/or chemotherapy) was assessed.

[2] = system: low grade prostate cancer (Gleason grade 6); assay: Clinical study, Example 1: new multifocal with Gleason upgrade in entire prostate; assay type: in vivo, human; conditions: for % Imp.: new multifocal with Gleason upgrade, entire prostate: vs control active surveillance
Experimental: as §1

[3] = system: prostate glandular epithelial cells; assay: In vitro tissue culture genetic array and cell effects; assay type: cell-based
From the text: Use of FT is a preferred embodiment. FT is a new molecular entity which in vitro stimulates caspase pathways (activation of caspases 7, 8, and 10, caspase recruitment domains 6, 11, and 14, and DIABLO), tumor necrosis factor pathways (activation of TNF1, TNFSF6, TNFSF8, TNFSF9, CD70 ligands, and TNFRSF19L, TNFRSF25, TRAF2, TRAF3, TRAF4, TRAF6 receptors), and BCL pathways (activation of BIK, HRK, BCL2L10 and BCL3) in prostate glandular epithelial cells, based on tissue culture genetic array data. […] The apoptotic process leads to typical ultrastructural progressive changes of membranous disruption and swelling, progressively deepening nuclear invaginations with eventual membranous bleb formations and cell death and fragmentation into apoptotic bodies.

[4] = system: low grade prostate cancer (Gleason grade 6); assay: Clinical study, Example 6: cancer treatment with new multifocal and an increase in Gleason grade primary pattern; assay type: in vivo, human; conditions: for % Imp.: cancer treatment with new multifocal and an increase in Gleason grade primary pattern, entire prostate: vs control active surveillance
Experimental: as §1

[5] = system: low grade prostate cancer (Gleason grade 6); assay: Clinical study, Example 5: cancer treatment with new multifocal with Gleason upgrade; assay type: in vivo, human; conditions: for % Imp.: cancer treatment with new multifocal with Gleason upgrade, entire prostate: vs control active surveillance
Experimental: as §1

[6] = system: low grade prostate cancer (Gleason grade 6); assay: Clinical study, Example 3: hemi-prostate multifocal cancer with Gleason upgrade; assay type: in vivo, human; conditions: for % Imp.: hemi-prostate multifocal cancer with Gleason upgrade: vs control active surveillance
Experimental: as §1

[7] = FT 2.5 mg, <=18 mos from treatment
[8] = FT 2.5 mg, <=36 mos from treatment
[9] = FT 2.5 mg, <=48 mos from treatment
[10] = FT 15 mg, <=18 mos from treatment
[11] = FT 15 mg, <=36 mos from treatment
[12] = FT 15 mg, <=48 mos from treatment
[13] = Pooled FT (2.5 mg and 15 mg), <=18 mos from treatment
[14] = Pooled FT (2.5 mg and 15 mg), <=18 mos
[15] = Pooled FT (2.5 mg and 15 mg), <=36 mos from treatment
[16] = Pooled FT (2.5 mg and 15 mg), <=36 mos
[17] = Pooled FT (2.5 mg and 15 mg), <=48 mos from treatment
[18] = Pooled FT (2.5 mg and 15 mg), <=48 mos
[19] = in vitro, tissue culture genetic array data

Substance: fexapotide triflutate (IDQQVLSRIKLEIKRCL; also: trifluoroacetate salt) [FT]
- percentage of patients: new multifocal with increase Gleason primary pattern, entire prostate [1, 7]: 0 (p = 0.17) %
- % Imp.: new multifocal with increase Gleason primary pattern, entire prostate ([1]; FT 2.5 mg, <=18 mos): 100%
- percentage of patients: new multifocal with increase Gleason primary pattern, entire prostate [1, 8]: 0 (p = 0.074) %
- % Imp.: new multifocal with increase Gleason primary pattern, entire prostate ([1]; FT 2.5 mg, <=36 mos): 100%
- percentage of patients: new multifocal with increase Gleason primary pattern, entire prostate [1, 9]: 0 (p = 0.009) %
- % Imp.: new multifocal with increase Gleason primary pattern, entire prostate ([1]; FT 2.5 mg, <=48 mos): 100%
- percentage of patients: new multifocal with increase Gleason primary pattern, entire prostate [1, 10]: 2.9%
- % Imp.: new multifocal with increase Gleason primary pattern, entire prostate ([1]; FT 15 mg, <=18 mos): 82.6%
- percentage of patients: new multifocal with increase Gleason primary pattern, entire prostate [1, 11]: 4.5%
- % Imp.: new multifocal with increase Gleason primary pattern, entire prostate ([1]; FT 15 mg, <=36 mos): 82%
- percentage of patients: new multifocal with increase Gleason primary pattern, entire prostate [1, 12]: 13.3%
- % Imp.: new multifocal with increase Gleason primary pattern, entire prostate ([1]; FT 15 mg, <=48 mos): 62.7%
- percentage of patients: new multifocal with increase Gleason primary pattern, entire prostate [1, 13]: 1.4 (p = 0.049) %
- % Imp.: new multifocal with increase Gleason primary pattern, entire prostate [1, 14]: 91.6%
- percentage of patients: new multifocal with increase Gleason primary pattern, entire prostate [1, 15]: 2.1 (p = 0.0031) %
- % Imp.: new multifocal with increase Gleason primary pattern, entire prostate [1, 16]: 91.6%
- percentage of patients: new multifocal with increase Gleason primary pattern, entire prostate [1, 17]: 6.5 (p = 0.012) %
- % Imp.: new multifocal with increase Gleason primary pattern, entire prostate [1, 18]: 81.8%
- percentage of patients: new multifocal with Gleason upgrade, entire prostate [2, 7]: 13.5%
- % Imp.: new multifocal with Gleason upgrade, entire prostate ([2]; FT 2.5 mg, <=18 mos): 51.4%
- percentage of patients: new multifocal with Gleason upgrade, entire prostate [2, 8]: 23.1%
- % Imp.: new multifocal with Gleason upgrade, entire prostate ([2]; FT 2.5 mg, <=36 mos): 47.2%
- percentage of patients: new multifocal with Gleason upgrade, entire prostate [2, 9]: 50%
- % Imp.: new multifocal with Gleason upgrade, entire prostate ([2]; FT 2.5 mg, <=48 mos): 12.4%
- percentage of patients: new multifocal with Gleason upgrade, entire prostate [2, 10]: 5.7 (p = 0.025) %
- % Imp.: new multifocal with Gleason upgrade, entire prostate ([2]; FT 15 mg, <=18 mos): 79.5%
- percentage of patients: new multifocal with Gleason upgrade, entire prostate [2, 11]: 9.1 (p = 0.13) %
- % Imp.: new multifocal with Gleason upgrade, entire prostate ([2]; FT 15 mg, <=36 mos): 79.2%
- percentage of patients: new multifocal with Gleason upgrade, entire prostate [2, 12]: 20 (p = 0.039) %
- % Imp.: new multifocal with Gleason upgrade, entire prostate ([2]; FT 15 mg, <=48 mos): 65%
- percentage of patients: new multifocal with Gleason upgrade, entire prostate [2, 13]: 9.7 (p = 0.044) %
- % Imp.: new multifocal with Gleason upgrade, entire prostate [2, 14]: 65.1%
- percentage of patients: new multifocal with Gleason upgrade, entire prostate [2, 15]: 16.7 (P = 0.027) %
- % Imp.: new multifocal with Gleason upgrade, entire prostate [2, 16]: 61.9%
- percentage of patients: new multifocal with Gleason upgrade, entire prostate [2, 17]: 35.5%
- % Imp.: new multifocal with Gleason upgrade, entire prostate [2, 18]: 37.8%
- cellular effects [3]: selectively causes loss of cell membrane integrity, mitochondrial metabolic arrest, depletion of RNA, DNA lysis and aggregation, and cell fragmentation and cell loss
- BCL pathways (activation of BIK, HRK, BCL2L10 and BCL3) [3, 19]: stimulates
- caspase pathways (activation of caspases 7, 8, and 10, caspase recruitment domains 6, 11, and 14, and DIABLO) [3, 19]: stimulates
- tumor necrosis factor pathways (activation of TNF1, TNFSF6, TNFSF8, TNFSF9, CD70 ligands, and TNFRSF19L, TNFRSF25, TRAF2, TRAF3, TRAF4, TRAF6 receptors) [3, 19]: stimulates
- percentage of patients: cancer treatment with new multifocal and an increase in Gleason grade primary pattern, entire prostate [4, 7]: 0 (p = 0.001) %
- % Imp.: cancer treatment with new multifocal and an increase in Gleason grade primary pattern, entire prostate ([4]; FT 2.5 mg, <=18 mos): 100%
- percentage of patients: cancer treatment with new multifocal and an increase in Gleason grade primary pattern, entire prostate [4, 8]: 0 (p = 0.006) %
- % Imp.: cancer treatment with new multifocal and an increase in Gleason grade primary pattern, entire prostate ([4]; FT 2.5 mg, <=36 mos): 100%
- percentage of patients: cancer treatment with new multifocal and an increase in Gleason grade primary pattern, entire prostate [4, 9]: 0 (p = 0.0040) %
- % Imp.: cancer treatment with new multifocal and an increase in Gleason grade primary pattern, entire prostate ([4]; FT 2.5 mg, <=48 mos): 100%
- percentage of patients: cancer treatment with new multifocal and an increase in Gleason grade primary pattern, entire prostate [4, 10]: 2.6 (p = 0.06) %
- % Imp.: cancer treatment with new multifocal and an increase in Gleason grade primary pattern, entire prostate ([4]; FT 15 mg, <=18 mos): 83.5%
- percentage of patients: cancer treatment with new multifocal and an increase in Gleason grade primary pattern, entire prostate [4, 11]: 3.6 (p = 0.04) %
- % Imp.: cancer treatment with new multifocal and an increase in Gleason grade primary pattern, entire prostate ([4]; FT 15 mg, <=36 mos): 84.7%
- percentage of patients: cancer treatment with new multifocal and an increase in Gleason grade primary pattern, entire prostate [4, 12]: 4.2 (p = 0.019) %
- % Imp.: cancer treatment with new multifocal and an increase in Gleason grade primary pattern, entire prostate ([4]; FT 15 mg, <=48 mos): 86.6%
- percentage of patients: cancer treatment with new multifocal and an increase in Gleason grade primary pattern, entire prostate [4, 13]: 1.3 (p = 0.04) %
- % Imp.: cancer treatment with new multifocal and an increase in Gleason grade primary pattern, entire prostate [4, 14]: 91.8%
- percentage of patients: cancer treatment with new multifocal and an increase in Gleason grade primary pattern, entire prostate [4, 15]: 1.7 (p = 0.002) %
- % Imp.: cancer treatment with new multifocal and an increase in Gleason grade primary pattern, entire prostate [4, 16]: 92.8%
- percentage of patients: cancer treatment with new multifocal and an increase in Gleason grade primary pattern, entire prostate [4, 17]: 2.1 (p = 0.001) %
- % Imp.: cancer treatment with new multifocal and an increase in Gleason grade primary pattern, entire prostate [4, 18]: 93.3%
- percentage of patients: cancer treatment with new multifocal with Gleason upgrade, entire prostate [5, 7]: 9.8%
- % Imp.: cancer treatment with new multifocal with Gleason upgrade, entire prostate ([5]; FT 2.5 mg, <=18 mos): 62.7%
- percentage of patients: cancer treatment with new multifocal with Gleason upgrade, entire prostate [5, 8]: 16.7%
- % Imp.: cancer treatment with new multifocal with Gleason upgrade, entire prostate ([5]; FT 2.5 mg, <=36 mos): 52.7%
- percentage of patients: cancer treatment with new multifocal with Gleason upgrade, entire prostate [5, 9]: 26%
- % Imp.: cancer treatment with new multifocal with Gleason upgrade, entire prostate ([5]; FT 2.5 mg, <=48 mos): 48%
- percentage of patients: cancer treatment with new multifocal with Gleason upgrade, entire prostate [5, 10]: 5.1 (p = 0.02) %
- % Imp.: cancer treatment with new multifocal with Gleason upgrade, entire prostate ([5]; FT 15 mg, <=18 mos): 80.6%
- percentage of patients: cancer treatment with new multifocal with Gleason upgrade, entire prostate [5, 11]: 7.1 (p = 0.17) %
- % Imp.: cancer treatment with new multifocal with Gleason upgrade, entire prostate ([5]; FT 15 mg, <=36 mos): 79.9%
- percentage of patients: cancer treatment with new multifocal with Gleason upgrade, entire prostate [5, 12]: 8.3 (p = 0.003) %
- % Imp.: cancer treatment with new multifocal with Gleason upgrade, entire prostate ([5]; FT 15 mg, <=48 mos): 83.4%
- percentage of patients: cancer treatment with new multifocal with Gleason upgrade, entire prostate [5, 13]: 7.5 (p = 0.02) %
- % Imp.: cancer treatment with new multifocal with Gleason upgrade, entire prostate [5, 14]: 71.5%
- percentage of patients: cancer treatment with new multifocal with Gleason upgrade, entire prostate [5, 15]: 12.1 (p = 0.026) %
- % Imp.: cancer treatment with new multifocal with Gleason upgrade, entire prostate [5, 16]: 65.7%
- percentage of patients: cancer treatment with new multifocal with Gleason upgrade, entire prostate [5, 17]: 17 (p = 0.009) %
- % Imp.: cancer treatment with new multifocal with Gleason upgrade, entire prostate [5, 18]: 66%
- percentage of patients: hemi-prostate multifocal cancer with Gleason upgrade [6, 7]: 8.6%
- % Imp.: hemi-prostate multifocal cancer with Gleason upgrade ([6]; FT 2.5 mg, <=18 mos): 54.26%
- percentage of patients: hemi-prostate multifocal cancer with Gleason upgrade [6, 8]: 16.7%
- % Imp.: hemi-prostate multifocal cancer with Gleason upgrade ([6]; FT 2.5 mg, <=36 mos): 53.2%
- percentage of patients: hemi-prostate multifocal cancer with Gleason upgrade [6, 9]: 42.9%
- % Imp.: hemi-prostate multifocal cancer with Gleason upgrade ([6]; FT 2.5 mg, <=48 mos): 5.7%
- percentage of patients: hemi-prostate multifocal cancer with Gleason upgrade [6, 10]: 5.7%
- % Imp.: hemi-prostate multifocal cancer with Gleason upgrade ([6]; FT 15 mg, <=18 mos): 69.7%
- percentage of patients: hemi-prostate multifocal cancer with Gleason upgrade [6, 11]: 9.1 (p = 0.049) %
- % Imp.: hemi-prostate multifocal cancer with Gleason upgrade ([6]; FT 15 mg, <=36 mos): 74.5%
- percentage of patients: hemi-prostate multifocal cancer with Gleason upgrade [6, 12]: 13.3%
- % Imp.: hemi-prostate multifocal cancer with Gleason upgrade ([6]; FT 15 mg, <=48 mos): 70.8%
- percentage of patients: hemi-prostate multifocal cancer with Gleason upgrade [6, 13]: 7.1%
- % Imp.: hemi-prostate multifocal cancer with Gleason upgrade [6, 14]: 62.2%
- percentage of patients: hemi-prostate multifocal cancer with Gleason upgrade [6, 15]: 13.0 (p = 0.0549) %
- % Imp.: hemi-prostate multifocal cancer with Gleason upgrade [6, 16]: 63.6%
- percentage of patients: hemi-prostate multifocal cancer with Gleason upgrade [6, 17]: 27.6%
- % Imp.: hemi-prostate multifocal cancer with Gleason upgrade [6, 18]: 39.3%
